Source: PMC5893557, “Small tumor necrosis factor receptor biologics inhibit the tumor necrosis factor-p38 signalling axis and inflammation” (Nature Communications, 2018)
Like-named read-outs stand apart in the source and are kept apart here. Residues, ends and D or L forms follow the SMILES beside them. No end group written: not given here.

Legend:
[1] = test system: human neutrophils; assay: TNF70–80-induced lucigenin-dependent chemiluminescence (superoxide) in neutrophils; format: cell-based
Procedure: (§1) Neutrophil superoxide production was measured by an indirect assay involving the reduction of the lucigenin, (9, 9′-bis N-methyl-acridinium nitrate) (Sigma-Aldrich, Castle Hill, NSW, Australia) and measuring the light output by lucigenin-dependant chemiluminescence. […] After incubation, 500 μl of lucigenin (250 μM, final) was added and the final volume was adjusted to 1 ml. The cells were placed in luminometer (Autolumat Plus Model LB 953, Berthold Technologies, Bundoora, VIC, Australia) and the resulting chemiluminescence (in relative light units, RLU) measured. The results are expressed as maximal/peak rate of chemiluminescence produced unless specified otherwise. CR3 expression on neutrophils was measured by flow cytometry using anti-CD11b antibodies. […] After treatment, 2 μl of PE-labelled mouse IgG2a isotype control (Clone X39) or PE-labelled monoclonal anti-CD11b antibody (Clone D12) (both from BD Biosciences, North Ryde, NSW, Australia) was added to neutrophils in 200 μl of Isoton II (BD Biosciences) supplemented with 0.1% (w/v) BSA. After 30 min the cells were washed, fixed with formaldehyde (0.1%) and analysed on a FACScan (BD Biosciences, North Ryde, NSW, Australia). Cytokine (IL-1β and IL-8) mRNA productions were measured by quantitative RT-PCR. Briefly, total RNA was extracted from 1 × 10^6 neutrophils using the TRIzol reagent (Life Technologies Australia Pty, Mulgrave, VIC, Australia) according to the manufacturer’s instructions. RNA was converted to cDNA using iScript cDNA synthesis kit (Bio-rad, Hercules, CA, USA).

[2] = test system: TNF-rich medium-induced superoxide production in neutrophils; assay: TNF-rich medium (RM)-induced chemiluminescence in neutrophils; format: cell-based, human
[3] = target: TNF-induced neutrophil CL production (Homo sapiens, UniProt P01375); settings: read-out: IC50, inhibition of TNF-induced CL production; TNF (1 ng/ml) pre-treated with peptide for 30 min, human neutrophils, lucigenin chemiluminescence
Procedure: as §1

[4] = test system: CD11b expression in neutrophils; assay: TNF-induced CD11b (CR3) expression in neutrophils, flow cytometry; format: cell-based, human; settings: TNF (5 ng/ml) pre-treated 20 min with 200 μM peptide unless otherwise specified
Procedure: as §1, with “Briefly, total RNA was extracted from 1 × 10^6 neutrophils using the TRIzol reagent (Life Technologies Australia Pty, Mulgrave, VIC, Australia) according to the manufacturer’s instructions. RNA was converted to cDNA using iScript cDNA synthesis kit (Bio-rad, Hercules, CA, USA).” left out

[5] = test system: TNF; assay: Solid phase binding of TNF to coated TNFRI peptide; parameters: species or system human; settings: peptide-coated plates, 50 U TNF, biotinylated anti-TNF antibody detection
Procedure: Depending on the experiment, microtitre plates were coated with 100 μl/well of either 3 μg/ml TNFRI198–211 in MilliQ water or TNFRI206–211 or the corresponding scrambled peptide in carbonate-bicarbonate buffer (pH 9.6) overnight at 4 °C and blocked with 1% BSA and 0.05% Tween-20 in PBS for 1 h at 4 °C. In the TNFRI198–211-coated plates, various concentrations of biotinylated TNF70–80 or control peptide were added to triplicate wells and incubated for 3 h at 4 °C. In the TNFRI206–211/scrambled peptide-coated plates, 50 U of TNF was added to triplicate wells, followed by washing with wash buffer (PBS/0.05% Tween-20) and then incubation with 50 μl of 1.5 μg/ml biotinylated monoclonal anti-TNF antibody (clone 2TNF-H33, ThermoScientific, Waltham, MA, USA). The wells from all plates were washed four times with wash buffer, then incubated with 100 μl/well of poly-horseradish peroxidase streptavidin conjugate (1/6000 dilution in 1% BSA and 0.05% Tween-20 in PBS) (ThermoScientific, Waltham, MA, USA) for 45 min at 4 °C. Wells were washed four times with wash buffer and bound enzyme detected by the addition of TMB substrate (Sigma-Aldrich, Castle Hill, NSW, Australia). Absorbance was measured using dual filter at 570/450 nm on a Dynatech MR700 Plate Reader (Guernsey, Channel Islands).

[6] = target: T1, recombinant human soluble TNFRI (Homo sapiens, UniProt P19438); assay: Inhibition of biotin-labelled TNF70–80 binding to immobilised soluble TNFRI; settings: tested at 1 mM in the presence of 10 μM biotinylated TNF70–80
T1 construct: rHusTNFRI (22–211), prepared as a chimeric protein; Fc portion of human IgG1; 6x histidine; purchased ProSpec-Tany TechnoGene Ltd (Rehovot, Israel)
T1 sequence (P19438 22-211): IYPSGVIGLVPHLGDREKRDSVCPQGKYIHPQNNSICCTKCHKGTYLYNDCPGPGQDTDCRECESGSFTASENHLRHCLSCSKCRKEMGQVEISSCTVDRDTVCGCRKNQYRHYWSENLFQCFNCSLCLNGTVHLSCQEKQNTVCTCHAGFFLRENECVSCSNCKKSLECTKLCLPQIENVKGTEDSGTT
Procedure: Microtitre plates were coated with 100 μl/well of 3 μg/ml rHusTNFRI (ProSpec-Tany TechnoGene Ltd, Rehovot, Isreal) in 18MQ-cm H2O overnight at 4 °C and blocked with 1% BSA and 0.05% Tween-20 in PBS for 1 h at 4 °C. Aliquot of 10 μM of biotin-labelled TNF70–80 (Auspep Pty, Ltd., Tullamarine, VIC, Australia) plus various concentrations of unlabelled TNF70–80 or control peptide were added to each well and incubated for 3 h at 4 °C. The wells were washed four times with wash buffer (PBS containing 0.05% Tween-20) and the plates were incubated with 100 μl/well of poly-horseradish peroxidase streptavidin conjugate (1/6000 dilution in 1% BSA and 0.05% Tween-20 in PBS) for 45 min at 4 °C. Wells were washed four times with wash buffer and bound enzyme detected by the addition of 3′,3′,5′,5′-tetramethylbenzidine (TMB) substrate (Sigma-Aldrich, Castle Hill, NSW, Australia). Absorbance was measured using dual filter at 570/450 nm on a Dynatech MR700 Plate Reader (Guernsey, Channel Islands).

[7] = Procedure: TNF70–80 and its control ([…]) were synthesised by Auspep Pty Ltd, (Tullamarine, VIC, Australia) and Genscript Biotech (Piscataway, NJ, USA). […] The sequence from the natural TNF-α was modified by substitution of isoleucine for leucine at residue 79. […] Fresh dilutions of the peptide were prepared daily in HBSS or HBSS with 1% BSA. The His-tagged M4 (HM4) ∆HM4 (LKPGTT) was purchased from Auspep Pty Ltd (Tullamarine, VIC, Australia). […] Peptides were stored at −20 °C and solutions were made in HBSS or RPMI prior to use.
[8] = test system: p38 MAPK; assay: p38 activation in neutrophils treated with TNF70–80; format: cell-based, human; settings: neutrophils incubated 15 min with peptide
Procedure: (§2) The study was approved by the CYWHS Human Ethics Committee (project number HREC 595/12/10). Neutrophils were prepared from peripheral blood of healthy donors, who had given informed consent, by a rapid single-step technique. Blood was layered on to Hypaque-Ficoll (Pharmacia Biotech., Uppsala, Sweden), d = 1.114, and centrifuged at 600 × g for 20–30 min. After centrifugation, the leukocytes resolved into two bands and the neutrophils were harvested from the second band. The preparations of neutrophils were routinely of >99% viability and >98% purity. These were either used as cells in suspension or as adhered neutrophils by adding the cells to plasma-coated plates as previously described. The 70Z/3 pre-B cell line, kindly provided by Dr. W. Langdon, University of Western Australia, Perth, Australia, are mouse pre-B lymphocytes which lack binding sites for human TNF and are non-responsive to the cytokine[18],[19]. The cells were maintained in RPMI 1640 medium with 4.5 g/L glucose, 2 mM L-glutamine, […] 2-mercaptoethanol and 10% FCS in an atmosphere of 95% air and 5% CO2. […]
(§3) p38 activity was determined, after immunoprecipitation, as described using myelin basic protein (MPB) as a substrate for the kinase in the presence of ^32P-ATP[35]. […]

[9] = test system: p38 activity in 70Z/3 pre-B cells; assay: p38 activity in 70Z/3 pre-B cells, mock- or TNFRI (WT/mutant)-transfected; format: cell-based, mouse
Procedure: as §2, with “CO2. The monocytic cell line, MonoMac 6 was kindly provided by Dr. H.W.L. Ziegler-Heitbrock (Institute of Clinical Chemistry and Pathobiochemistry, Klinikum rechts der Isar, Technische Universitat, Munchen, Germany) and maintained in RPMI 1640 supplemented with 10% heat-inactivated foetal calf serum, 1 mM pyruvate, glutamine and antibiotics. A mouse fibroblastic fibrosarcoma cell line WEHI-164, clone 13 (from the ATCC) was obtained from Dr. Geeta Chauhdri (John Curtain School of Medical Research, Australian National University, Canberra, Australia). The cells were maintained in RPMI-1640 medium as above and the cells were detached with 0.25% trypsin EDTA. HEK 293T cells were maintained in DMEM, supplemented with 10% foetal calf serum.” for “CO2.”
as §3

[10] = test system: macrophage; settings: ability to stimulate nitric oxide production in macrophage; cited from earlier work
Description: The modification extended the serum half-life ...

[11] = test system: p38 activity in HEK 293T cells; assay: p38 activity in HEK 293T cells stably transfected with TRAF2, ∆TRAF2 or empty vector; format: cell-based; settings: 10 μM
Procedure: as §2, §3

[12] = test system: Ross River virus (RRV)-infected mice; settings: cited from earlier work
Description: Given that the TNFR peptide sequence covers the minimal region that is required for TNF to activate p38, it is likely the peptide alters the dynamics of the TNF–TNFR interaction—allowing not only TNF binding to TNFRI, but also the activation of the other signalling molecules that the receptor normally activates. This implies that other regions of TNFRI mediate the activation of the other signalli ...

C[S+]([O-])c1ccc(-c2nc(-c3ccncc3)c(-c3ccc(F)cc3)[nH]2)cc1 (stereo not drawn) [SB203580, reference compound]
effect on TNF70–80-induced respiratory burst response ([1]; neutrophils pre-incubated with inhibitor for 10 min before TNF70–80): inhibited

C[C@@H](O)[C@H](NC(=O)[C@@H](NC(=O)CN)[C@@H](C)O)C(=O)O [TNFRI209–211] (H-Gly-Thr-Thr-OH)
IC50 [2]: 146 µM
IC50 [3]: 123 µM

EDSGTT [TNFRI206–211]
IC50 ([2]; TNF-RM (conditioned medium of Staphylococcus aureus-stimulated mononuclear leukocytes, 1:10 in HBSS) treated with peptide, n = 3, read-out: IC50, inhibition of neutrophil response to TNF-rich medium): 216 µM
IC50 [3]: 171 µM

GEDTST [scrambled control of TNFRI206–211]
effect on TNF-induced CD11b expression in neutrophils [4]: Lack of effect
binding to TNF, solid phase assay [5]: did not bind

GGDPGIVTH [scrambled peptide (GGDPGIVTH), control peptide of TNF70–80 (…)]
binding to immobilised TNFR1 (competition with biotinylated TNF70–80) [6]: Lack of binding

LKPGTT [∆HM4]
effect on TNF70–80-stimulated CL production in human neutrophils ([1]; four experiments): dose-dependent suppression

PSTHVLITHTI [TNF70–80]
superoxide production, lucigenin-dependent chemiluminescence ([1]; neutrophils, chemiluminescence over 45 min): stimulated the production of superoxide in a similar manner to TNF
serum half-life ([7]; after substitution of isoleucine for leucine at residue 79, no method or species printed): > 1.5 h
water solubility ([7]; after substitution of isoleucine for leucine at residue 79, relative to natural sequence): increased
p38 MAPK activation in neutrophils [8]: activation of p38 MAPK
p38 activity effect in M4 TNFRI mutant-transfected cells ([9]; 70Z/3 cells, M4 TNFRI mutant, 10 μM, p = 0.11, n = 3): retained, albeit appearing reduced
increase in p38 activity ([9]; WT TNFRI- and M1 TNFR1-transfected 70Z/3 cells, 10 μM, 5 min, three experiments): ~ 2.5 fold
p38 activity in 70Z/3 pre-B cells lacking TNFRs ([9]; untransfected (mock) cells): failed to stimulate the activity of p38
concentration that equates to 1000 U/ml of TNF [10]: 5.0 µg/mL
p38 activity in cells transfected with dominant-negative TRAF2 (∆TRAF2) [11]: but not in those transfected with ∆TRAF2
p38 activity in cells transfected with wild-type TRAF2 or an empty vector [11]: enhanced the activity of p38

QIENVKGTEDSGTT [TNFRI198–211]
IC50 [3]: 50 µM

etanercept
outcome in RRV-infected mice versus untreated RRV-infected mice [12]: decreased weight gain, higher viral titre in muscle, joints and blood, associated with a greater degree of tissue damage and inflammatory cell recruitment
